The experiment relates to 4T1 tumors. As to the kind of experiment: In-vivo analysis of impact on 4T1 tumor growth in Balb/c mice. On the set-up: species or system female Balb/c mice. The settings on record: 4T1 tumors in mammary fat pad, carboplatin 5 mg/kg/wk or molar-equivalent Pt-LHRH, IP, 2 weeks, vs control. The method, then:
In this experiment at least one eleven week old female Balb/c mice were utilized. The animals were allowed to acclimate for 1 week before experimentation and were maintained on a 12 hours light and dark cycle, and fed standard rodent chow (Prolab ISOPRO RMH 3000 Irradiated Lab Diet; Purina Mills International). Animal protocols were approved by the committee on animal research care and use at Eastern Kentucky University. 4T1 tumors were grown in the right abdominal mammary fat pad of the mice for 7 days. After tumor initiation (˜100 mm3) the mice were administered Pt-LHRH (carboplatin molar-equivalent dosage) through IP injection and compared to those treated with carboplatin (5 mg/kg/wk), no treatment, and LHRH plus carboplatin (unbound) controls for 2 weeks. Tumor growth was monitored daily and tumor volumes (mm3) were calculated using the formula: (width) 2×length/2, where width is the smaller of the two measurements. At two weeks the mice were sacrificed and tumor volume and weight were measured.

With `N.N.O=C([O-])C1(C(=O)[O-])CCC1.[Pt+2]` [carboplatin], the tumor growth result is recorded as “no statistically significant reduction in tumor growth”.

(Values after patent publication US11197888B2, “LHRH-platinum conjugates for treating reproductive cancers” (priority 2015, dated 2021).)
